{"source": "patent US11142548B2", "about": "“Agents that activate CD47 and their use in the treatment of inflammation” (SORBONNE UNIVERSITE, priority 2016, dated 2021)", "key": {"human monocytes": {"tested_on": "human monocytes", "experiment": "Monocyte/RPE co-culture, monocyte number", "assay_type": "cell-based", "conditions": "for number of PU1+ Mos, dose response: HTRA1-activated co-cultures, dose dependently", "source_text": "In accordance with the Declaration of Helsinki, volunteers provided written and informed consent for the human monocyte expression studies, which were approved by the Centre national d'ophthalmologic des Quinze-Vinet hospital (Paris, France) ethics committees (no. 913572). PBMCs were isolated from heparinized venous blood from healthy volunteer individuals by 1-step centrifugation on a Ficoll Paque layer (GE Healthcare) and sorted with EasySep Human Monocyte Enrichment Cocktail without CD16 Depletion Kit (StemCells Technology). Mouse peritoneal macrophages, bone marrow-derived monocytes and photoreceptor outer segment (POS) isolation (all in serum-free X-Vivo 15 medium) were performed as previously described (Sennlaub et al, EMBO Mol Med. 2013, 5:1775-1793). For co-culture experiments the mononuclear monocytes were either stained using CellTrace™ CFSE (Life Technologies®) and then washed three times or they were identified by PU1 immunohistochemistry, a MP-specific transcription factor not expressed in RPE.\n(§1) Fresh pig eyes were obtained from the slaughter house 2-3 hours after enucleation. They were cleaned of surrounding tissue and immersed briefly in antiseptic solution (Pursept®). The anterior part of the eye was removed, as the lens, vitreous and vitreous. The posterior segments were washed 2 times with PBS (Phosphate Buffered Saline) and then incubated at 37° C. in the presence of 0.25% trypsin, to detach the RPE cells. After 1 h incubation, the trypsin solution was removed and the cells recovered in Dulbecco's Modified Eagle's Medium (DMEM) supplemented with 20% fetal calf serum (FCS) decomplemented and in the presence of antibiotics (1% penicillin/Streptomycin). The cells were washed several times and then incubated at 37° C. in culture dishes. Three days after the culturing, these cells were again incubated with by 0.25% trypsin, washed, and seeded into 48 wells culture plates (Grenier®) at a density of 150,000 cells/culture well (300,000 cells/[…] or 500 μL/well). Cell confluence was obtained after 4 days of incubation at 37° C. with optimum cell characteristics (squamous cells, well pigmented). To avoid the aging of these primary cell cultures, all the experiments were conducted between the 5th and 7th day after seeding the culture plates.\nThe culture medium of RPE cells was changed the day before the co-culture with DMEM without FCS (DMEM+1% Penicillin/Streptomycin only). Monocytes were plated onto the wells in the presence or absence of RPE cells at a concentration of 200,000 cells/culture well in a 48-well plate.\nPart of co-culture well was brought into contact with 1 ng/ml of Lipopolysaccharide (LPS) from E. coli or recombinant HTRA1 (R & D, 5 μg/ml), to simulate a systemic inflammatory activation (LPS) or microenvironment similar to AMD (increase HTRA1) (see above). […]\nRPE cells were permeabilized, after washing PAF 4%, with a solution of PBS-0.1% Triton-Citrate 0.1%. Nonspecific immunogenic sites were blocked with PBS-0.1% Triton-5% horse serum. After 1 hour, the blocking solution was removed and the cells were placed in presence of the with the primary antibodies (polyclonal rabbit anti-human PU.1, 1/200, LifeTechnologies; polyclonal goat anti-human OTX2, 1/500, R&D) diluted in PBS triton 0.1% and 1% horse serum and incubated at 4° C. for 12 h. After three washes with PBS, the secondary antibody coupled to a fluorochrome and diluted in PBS-0.1% Triton-1% horse serum was added along with DAPI (nuclear staining) and left for 1 hour at temperature ambient and then washed several times with PBS.\n25 fields per well were analyzed Arrayscan® then the number of cells for each culture condition was counted directly by a computer protocol. All nuclei were labeled with DAPI, monocytes were marked in green 488 nm (CellTrace™ CFSE) or and RPE cells in far red 647 nm (recognition of anti-OTX2 primary antibody). […]"}, "[1]": {"tested_on": "recruited monocyte-derived inflammatory macrophages (recMφ)", "experiment": "Thioglycollate-induced peritonitis", "assay_type": "in vivo, mouse", "conditions": "single intra-peritoneal injection at day 1, observed at day 2", "experimental": "Mouse peritoneal exudate cells (PECs) were elicited by i.p. injection of 0,5 ml 3% thioglycollate (T9032, Sigma) into 10 weeks old male C57BL/6J and Cd47^−/− mice. After 1 day, PECs were isolated by flushing of the peritoneum with ice-cold PBS, Mφs were negatively selected by magnetic sorting following the manufacturers protocol (EasySep Mouse Monocyte Enrichment Kit, Stemcell Technologies), resuspended in X-VIVO 15 medium (Lonza), and plated in Lab-Tek® Chamber Slide™ (Nunc®).\nTo test whether CD47 influences inflammation resolution in other pathological contexts, a model of acute thioglycollate-induced peritonitis was used, characterized by an early accumulation of neutrophils, followed by recruited monocyte-derived inflammatory macrophages (recMφ), both experiencing an apoptosis-driven elimination at different kinetics (Gautier et al., Blood. 2013, 122:2714-2722)."}, "subretinal IBA-1+ MPs": {"tested_on": "subretinal IBA-1+ MPs", "experiment": "Laser-injury model in Cx3cr1GFP/GFP mice", "assay_type": "in vivo, mouse", "conditions": "2 μl intravitreal at day 4 and day 7, day 10, vs PBS or 4NGG", "experimental": "(§2) Laser-coagulations were performed with a 532 nm ophtalmological laser mounted on an operating microscope (Vitra Laser, 532 nm, 450 mW, 50 ms, and 250 μm): Intravitreal injections of 2 μl of HTRA1 and/or TSP1 were performed using glass capillaries (Eppendorf) and a micro injector. The 2 μl injection solution contained 50 μg/ml TSP1 and HTRA1, corresponding to an intraocular concentration of 5 μg/ml of each protein assuming their dilution by approximately 1/10th in the intra-ocular volume. […] A volume of 2 μl of a 100 μM solution of either PBS, recombinant TSP1 (10 μg/ml), the 4NGG control peptide or the CD47-activating peptide PKT16 (200 μM) was injected at day 4 (when MP infiltration is maximal) and day 7 after the injury and evaluated subretinal inflammation on flatmounted RPE/choroidal flatmounts at day 10.\n(§3) Eyes were enucleated, fixed in 4% PFA 30 minutes and sectioned at the limbus; the cornea and lens were discarded. […] Choroids and retinas were flatmounted and viewed with a fluorescence microscope DM5500B (Leica). IBA-1+ cells were counted on whole RPE/choroidal flatmounts and on the outer segment side of the retina. […]"}, "porcine RPE": {"tested_on": "porcine RPE", "experiment": "Monocyte/RPE co-culture, RPE cell number (OTX2+ nuclei)", "assay_type": "cell-based", "conditions": "for number/survival of RPE cells in co-culture: HTRA1 5 μg/mL, OTX2 nuclear marker", "experimental": "as §1\nThe culture medium of RPE cells was changed the day before the co-culture with DMEM without FCS (DMEM+1% Penicillin/Streptomycin only). Monocytes were plated onto the wells in the presence or absence of RPE cells at a concentration of 200,000 cells/culture well in a 48-well plate. […]\n25 fields per well were analyzed Arrayscan® then the number of cells for each culture condition was counted directly by a computer protocol. […] For graphs where quantifications from several plates were pooled (FIGS. 4D and E) results were expressed as the percentage of the number of PU.1 or OTX2 positive cells normalized with the HTRA1 treated condition. […]"}, "[2]": {"tested_on": "subretinal IBA-1+ mononuclear monocytes", "experiment": "Laser-induced subretinal inflammation in wildtype- and Tsp1-/- mice", "assay_type": "in vivo, mouse", "conditions": "wildtype mice, intravitreal injection at d3, quantification at d7", "experimental": "as §2, §3"}, "HTRA1": {"target": "T1, HTRA1 (Homo sapiens, UniProt Q92743)", "T1 construct": "purchased R & D", "T1 sequence (Q92743 23-480)": "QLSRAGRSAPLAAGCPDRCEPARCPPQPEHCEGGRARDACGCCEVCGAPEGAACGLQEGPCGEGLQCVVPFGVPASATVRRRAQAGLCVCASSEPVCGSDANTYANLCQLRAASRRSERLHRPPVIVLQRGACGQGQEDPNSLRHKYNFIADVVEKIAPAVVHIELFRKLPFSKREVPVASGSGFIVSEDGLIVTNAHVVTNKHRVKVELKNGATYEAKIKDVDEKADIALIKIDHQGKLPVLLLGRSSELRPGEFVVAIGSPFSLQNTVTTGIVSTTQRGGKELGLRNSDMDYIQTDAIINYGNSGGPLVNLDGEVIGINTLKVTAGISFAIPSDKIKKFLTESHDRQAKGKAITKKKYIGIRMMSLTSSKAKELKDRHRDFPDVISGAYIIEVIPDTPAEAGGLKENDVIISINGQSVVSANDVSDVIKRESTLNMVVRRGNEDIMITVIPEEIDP", "experiment": "Co-incubation of recombinant TSP1 or TSP2 with recombinant HTRA1 (Coomassie staining, Western blot)", "assay_type": "biochemical", "conditions": "co-incubation at 37° C. for 24 h, Coomassie gel", "experimental": "WB analysis was performed using a monoclonal anti-TSP1 antibody (Abeam), as previously described (Houssier et al., PLoS Med. 2008, 5:e39). RT-PCRs primers were ordered from Taqman, reference: Hs01016151_m1.\nWestern blot analysis of the proteins confirmed the disappearance of the whole sized TSP1 and the appearance of several smaller bands in the co-incubated condition (FIG. 3A). […] Next the functionality of rTSP1 and HTRA1-digested TSP1 was analyzed in laser-induced subretinal inflammation in vivo. […] Accordingly, associated choroidal neovascularization, measured as the surface covered by CD102^−CNV on choroidal flatmounts at d7, underwent the same differences (FIG. 3D)."}}, "note": "Non-standard residues stand in square brackets, D forms with d. Residues, ends and D or L forms follow the SMILES beside them. NMeR = CN[C@@H](CCCNC(=N)N)C(=O)O; Nle = CCCC[C@H](N)C(=O)O", "data": [{"molecule": "4N1K-GGGGGGGG-4N1K (KRFYVVMWKKGGGGGGGGKRFYVVMWKK) [d4N1K]", "values": [{"measurement": "Mo elimination compared with 4N1K", "setting": "human monocytes; HTRA1-activated co-cultures, 0, 4, 20 and 50 μM, 48 h", "result": "significantly more effective"}]}, {"molecule": "CSCC[C@H](NC(=O)[C@@H](NC(=O)[C@@H](NC(=O)[C@H](Cc1ccc(O)cc1)NC(=O)[C@H](Cc1ccccc1)NC(=O)[C@H](CCCNC(=N)N)NC(=O)[C@H](N)CCCCN)C(C)C)C(C)C)C(=O)N[C@@H](Cc1c[nH]c2ccccc12)C(=O)N[C@@H](CCCCN)C(=O)N[C@H](CCCCN)C(=O)O", "note": "[PKHB1, (D)K-R-F-Y-V-V-M-W-K-(D)K]", "values": [{"measurement": "elimination of recMφs", "setting": "[1]", "result": "significantly accelerated the elimination"}]}, {"molecule": "CCCC[C@H](NC(=O)[C@@H](NC(=O)[C@@H](NC(=O)[C@H](Cc1ccc(O)cc1)NC(=O)[C@H](Cc1ccccc1)NC(=O)[C@H](CCCNC(=N)N)N(C)C(=O)[C@H](N)CCCCN)C(C)C)C(C)C)C(=O)N[C@@H](Cc1c[nH]c2ccccc12)C(=O)N[C@@H](CCCCN)C(=O)N[C@H](CCCCN)C(=O)O", "note": "[PKT16, (D)K-(NMeR)-F-Y-V-V-Nle-W-K-(D)K] (H-[dK][NMeR]FYVV[Nle]WK[dK]-OH)", "values": [{"measurement": "elimination of subretinal IBA-1+ MPs adjacent to the laser impact", "setting": "subretinal IBA-1+ MPs", "result": "eliminated significantly more efficiently"}, {"measurement": "number of PU1+ Mos, dose response", "setting": "human monocytes; 48 h", "result": "diminished the number of Mos"}, {"measurement": "CFSE+ monocytes number in HTRA1 treated co-culture", "setting": "human monocytes; peptide 100 μM added directly, HTRA1 5 μg/mL, 24 h", "result": "completely reversed"}, {"measurement": "toxicity to RPE cells (number of OTX2+ nuclei)", "setting": "porcine RPE; HTRA1 treated co-culture with peptide", "result": "No toxicity"}]}, {"molecule": "KRFYVVMWKK (4N1K peptide) [reference compound]", "values": [{"measurement": "number of PU1+ Mos, dose response", "setting": "human monocytes; 48 h", "result": "diminished the number of Mos"}]}, {"molecule": "rHTRA1: recombinant HTRA1 (R & D), high-temperature requirement A serine peptidase 1", "values": [{"measurement": "monocytes survival in co-culture", "setting": "human monocytes; HTRA1 5 μg/mL", "result": "significantly increased"}, {"measurement": "hMos number relative to control conditions", "setting": "human monocytes; HTRA1 5 μg/mL added to co-culture, 24 h", "result": "3 to 4", "unit": "times"}, {"measurement": "effect of HTRA1 on Mo number after heat-inactivation", "setting": "human monocytes; heat-inactivated HTRA1 (not shown)", "result": "abolished its effect"}, {"measurement": "number/survival of RPE cells in co-culture", "setting": "porcine RPE; listed as HTRA1", "result": "did not influence survival"}, {"measurement": "number/survival of RPE cells in co-culture", "setting": "porcine RPE; listed as Recombinant HTRA1", "result": "did not diminish significantly"}, {"measurement": "laser-induced subretinal inflammation in wildtype mice", "setting": "[2]", "result": "aggravates"}]}, {"molecule": "recombinant TSP2: recombinant TSP2, contains one VVM site, resistant to HTRA1", "values": [{"measurement": "degradation by recombinant HTRA1", "setting": "HTRA1", "result": "no such degradation"}]}]}
